From patent US9205050B2, “Antibiotic formulations, unit doses, kits and methods” (Bayer Intellectual Property GmbH, priority 2005, dated 2015)
Where a name gives a salt, the structure may show the parent alone. Read-outs that look alike come from different tables or passages of the source.

Key:
[1] = solubility study of Vancomycin HCl in water (saturated solution, UV 280 nm); assay type: physicochemical; conditions: thermodynamic from solid, water for injection, stirred 48 h, filtered, read-out: maximum solubility in water
Procedure: A saturated solution of Vancomycin HCl in water for injection was prepared by adding under stirring the active agent to the solvent.
Suspension was stirred for 48 h in order to reach the equilibrium conditions for the dissolution.
Suspensions was filtered first through a paper filter and then through a 0.45 μm PVDF filter discarding the first drops of solution which could have been diluted because of the binding of the product to the membrane.
The filtrated solutions of Vancomycin HCl in water coming from the respective saturated solutions, was diluted to reach a final concentration which gave an Abs value at λ=280 nm included into the calibration curve.
Each diluted solution was analysed in triplicate with UV at λ=280 nm. For each solution the absorbances have been mediated and the final value has been substituted in the respective calibration curve equation to calculate the concentration.

[2] = pH of Vancomycin HCl solutions, bulk solution and reconstituted lyophilizate; assay type: physicochemical
Procedure: […] On the final solution, pH and density were measured and appearance was evaluated. After lyophilization the following analyses were performed on the final product: • water content by Karl Fischer titration; • appearance of the cake, • reconstitution time, • appearance/clarity, • pH after reconstitution.

[3] = density of Vancomycin HCl solutions; assay type: physicochemical
Procedure: On the final solution, pH and density were measured and appearance was evaluated. […]

[4] = particle size distribution of nebulized aerosol, laser diffraction; assay type: physicochemical; conditions: solutions in WFI 60 to 140 mg/ml, fill 2 to 4 ml
Procedure: Droplet size distributions for aerosolized drug and placebo solutions were measured using the Sympatec HELOS laser diffraction spectrometer. In preparation for a run, the nebulizer was connected to the compressed air line, the flow turned on and the pressure regulator set to a driving pressure to generate a flow rate of 8 LPM through the nebulizer. The flow was then turned off by closing the flow shut-off valve. Next, the nebulizer was connected to a “T” piece with one port plugged, and the other port coupled to a mouthpiece. The nebulizer was then filled with drug solution, and mounted so that nebulizer mouthpiece was aligned parallel to the nozzle of the Rodos dry powder disperser apparatus already installed in the spectrometer. The laser diffraction system was setup to automatically trigger when it sensed the presence of the aerosol generated by the nebulizer. Measurements were initiated by opening the shut-off valve to pressurize the nebulizer and generate the aerosol. A total of 6 particle size distribution scans were taken for each nebulizer run, and then averaged to provide representative size distribution results.

CD rats = experiment: 14-consecutive day nose-only inhalation toxicity and recovery; assay type: in vivo, rat
Procedure: This Example involved evaluating the potential toxicity and recovery resulting from a 14-consecutive day, nose-only inhalation administration of vancomycin hydrochloride (vancomycin) to CD rats.
The solution was used to generate aerosolized vancomycin for all vancomycin exposure groups.
Nose-only exposures were conducted in a “flow-past” cylindrical inhalation chamber placed inside a steel-framed Plexiglas secondary containment box. The chamber contained 48 animal ports, each compatible with a single nose-only exposure tube, aerosol concentration sampling device (e.g., filter), or oxygen monitor.
The total air flow through the exposure system was balanced to achieve individual animal port flows of ˜500 mL/min (port flow approximated based on total chamber flow). Measured flows included sample flow rate, nebulizer flow rate, dilution flow rate (chamber make-up air), and chamber exhaust flow.
Vancomycin solution was aerosolized with two Aerotech II nebulizers operated at 20 psi driving pressure. The target aerosol Vancomycin concentration for all exposure levels was ˜1.0 mg/L.
Aerosolized vancomycin was administered to 3 groups of male and female CD rats (available from Charles River Laboratories, Kingston, N.Y.) for durations of 30 min (Low), 90 min (Mid), and 180 min (High). A control group was exposed for 180 min to aerosols generated from a normal saline solution. Groups of rats from the Control and High level 14-day exposures were also studied following a 14-day recovery period. Endpoints included clinical observations, body weights, clinical pathology (hematology, clinical chemistry), urinalyses, organ weights, and histopathology.

[5] = 14-consecutive day face mask inhalation toxicity and recovery; assay type: in vivo, dog; conditions: both sexes, beagle, dog, in vivo, inhaled, high exposure level (60 min)
Procedure: (§1) This Example involved evaluating the potential toxicity and recovery resulting from a 14-consecutive day, face mask inhalation administration of vancomycin hydrochloride to beagle dogs.
(§2) Within 2 hours prior to usage, a vancomycin nebulizer solution having a concentration of 120 mg/ml was formed by dissolving vancomycin hydrochloride (available from Alpharma, Copenhagen, Denmark) in sterile water for injection USP (available from B. Braun Medical Inc., Bethlehem, Pa.). The solution was used to generate aerosolized vancomycin for all vancomycin exposure groups.
(§3) The exposure system consisted of a single, cylindrical, plexiglass inhalation chamber (volume of ˜23.7 L, 14.61-cm radius, 35.56-cm height). The chamber was supplied with two Aerotech II nebulizers operated at ˜40 psi. Nebulized test article and nebulizer air supply was diluted with ˜10 L/min HEPA-filtered dilution air. The flow through the system was ˜36 L/min.
(§4) The aerosolized vancomycin was administered via a face mask to 3 groups of male and female beagle dogs for durations of 15 min (Low), 30 min (Mid), and 60 min (High). A control group was exposed for 60 min to aerosols generated from normal saline solution, i.e., 0.9% sodium chloride injection USP (available from B. Braun Medical Inc.).
(§5) Groups of dogs from the Control and High level 14-day exposures were also studied following a 14-day recovery period. Endpoints for all groups of dogs included physical examinations, clinical observations, body weights, opthalmology, cardiovascular EKG, clinical pathology (hematology, clinical chemistry), urinalyses, organ weights, histopathology, and toxicokinetics.

beagle dogs = experiment: as above; assay type: in vivo, dog
Procedure: as §1, §2, §3, §4, §5

[6] = osmolality of gentamicin sulfate solutions; assay type: physicochemical
Procedure: Solubility in water was determined via visual assessment. Osmolality and pH were also determined. […] The solubility was determined by visual assessment.

[7] = exposure aerosol from 120 mg/ml solution

With `CN[C@H](CC(C)C)C(=O)N[C@H]1C(=O)N[C@@H](CC(N)=O)C(=O)N[C@H]2C(=O)N[C@H]3C(=O)N[C@H](C(=O)N[C@H](C(=O)O)c4cc(O)cc(O)c4-c4cc3ccc4O)[C@H](O)c3ccc(c(Cl)c3)Oc3cc2cc(c3O[C@@H]2O[C@H](CO)[C@@H](O)[C@H](O)[C@H]2O[C@H]2C[C@](C)(N)[C@H](O)[C@H](C)O2)Oc2ccc(cc2Cl)[C@H]1O` [Vancomycin HCl, vancomycin hydrochloride] the solubility at 48 h [1] was 141 mg/mL, the pH ([2]; 100.12 mg/mL in water) was 3.8-4.1 and the pH ([2]; 110.16 mg/mL in water) was 3.7-3.9. For the same compound, the pH ([2]; 120.26 mg/mL in water) was 3.6-3.8, the pH ([2]; 130.5 mg/mL in water) was 3.5-3.7 and the pH ([2]; 140.8 mg/mL in water) was 3.4-3.5. It also gave a Density ([3]; 100.12 mg/mL in water) of 1.027 g/mL, a Density ([3]; 110.16 mg/mL in water) of 1.034 g/mL and a Density ([3]; 120.26 mg/mL in water) of 1.037 g/mL. The Density ([3]; 130.5 mg/mL in water) was 1.042 g/mL, the Density ([3]; 140.8 mg/mL in water) was 1.046 g/mL and the “volume weighted median size” value [4] was 2-3 μm. For the same compound, the “no observed effect level” value (CD rats; 14-day inhalation) was “not established”, the tolerability of exposures (CD rats; 30, 90, 180 min/day, 14 days, about 1.2 mg/L) was “well-tolerated” and the lung weight increase (CD rats; High exposure level (180 min)) was ~19 % of control. For the same compound, the lung weight increase (CD rats; Low exposure level (30 min)) was “approximately 8 % of control”, the “increase in aspartate aminotransferase (AST) values” (CD rats; Mid and High exposure levels) was 28-46% and the “neutrophils (hematology)” value (CD rats; Mid and High exposure levels) was “statistically significant increase”. For the same compound, the lung weight increase (CD rats; Mid exposure level (90 min)) was ~20 % of control, the “histopathologic findings after recovery” value (CD rats; after 14 days of recovery, High level) was “substantial diminution of these findings” and the body weight (CD rats; all exposure levels) was “no vancomycin treatment related effects”. For the same compound, the clinical observations (CD rats; all exposure levels) was “no vancomycin related effects”, the “serum indicators of kidney function or urinalysis” value (CD rats; all exposure levels) was “No vancomycin related changes” and the survival (CD rats; all exposure levels, 14 days) was “All rats survived to scheduled necropsy”. The “exposure related histopathologic findings” value (CD rats; end of 14-day exposure) was “limited to the respiratory tract”, the “mean particle size, mass median aerodynamic diameter” value (CD rats; [7]) was 2.0-2.6 μm and the NOAEL at 14 days ([5]; read-out: no observed adverse effect level (NOAEL), deposited lung dose) was 9 mg/kg. The NOAEL at 14 days ([5]; read-out: no observed adverse effect level (NOAEL), inhaled dose) was 45 mg/kg, the “recovery of histopathological effects” value (beagle dogs; 14-day recovery, High level) was “complete after 14 days” and the tolerability of exposures (beagle dogs; 15, 30, 60 min/day, 14 days, about 1.4-1.5 mg/L) was “well-tolerated”. For the same compound, the “physical examinations, clinical observations, opthalmology, ECG, hematology, clinical chemistry, urinalyses, gross necropsy, organ weights” value (beagle dogs; all exposure levels) was “no vancomycin related effects”, the survival (beagle dogs; all exposure levels, 14 days) was “All dogs survived to scheduled necropsy” and the “effects of exposure in histopathology” value (beagle dogs; end of 14-day exposure) was “limited to microscopic findings in the lung”. For the same compound, the “mean particle size, mass median aerodynamic diameter” value (beagle dogs; [7]) was 1.9-2.6 μm.
Compound gentamicin sulfate has an Osmolality ([6]; 20 mg/ml active in 0.9% saline) of 318 mOsmol/kg, an Osmolality ([6]; 20 mg/ml active in WFI) of 61 mOsmol/kg and an Osmolality ([6]; 40 mg/ml active in 0.9% saline) of 353 mOsmol/kg. The Osmolality ([6]; 40 mg/ml active in WFI) was 101 mOsmol/kg, the Osmolality ([6]; 80 mg/ml active in 0.9% saline) was 445 mOsmol/kg and the Osmolality ([6]; 80 mg/ml active in WFI) was 197 mOsmol/kg. The Osmolality ([6]; 120 mg/ml active in WFI) was 275 mOsmol/kg, the Osmolality ([6]; 200 mg/ml active in WFI) was 524 mOsmol/kg and the Osmolality ([6]; 250 mg/ml active in WFI) was 1178 mOsmol/kg. It also gave an Osmolality ([6]; 300 mg/ml active in WFI) of 2013 mOsmol/kg.
